Data from PMC8161026, “Synthesis and Anticancer Activity Evaluation of 5-[2-Chloro-3-(4-nitrophenyl)-2-propenylidene]-4-thiazolidinones” (Molecules, 2021).

Legend:
[1] = test system: HOP-62; settings: HOP-62 (Non-Small Cell Lung Cancer), 48 h, SRB
[2] = test system: SK-MEL-28; settings: SK-MEL-28 (Melanoma), 48 h, SRB
[3] = test system: MCF-7 (breast cancer); assay: MTT cell viability assay; type: cell-based; settings: Homo sapiens, MCF7; MCF-7, MTT, 24 h
Procedure: (§1) In the second stage of the research, Ciminalum-thiazolidinone hybrids were investigated for antitumor activity on the lines of gastric cancer (AGS), human colon cancer (DLD-1), and breast cancers (MCF-7 and MDA-MB-231). The study was performed in the MTT assay according to the method described previously. The studied cancer line was sensitive to the action of the studied compounds that inhibited its growth in micromolar ranges of GI50. The hit compounds that inhibited the growth of all four cancer lines with the lowest GI50 values were [5-[2-chloro-3-(4-nitrophenyl)prop-2-enylidene]-rhodanines 2c, 2d, 2h, and 2i (Table 4).

[4] = test system: DLD-1 (human colon cancer); assay: MTT cell viability assay; type: cell-based; settings: DLD-1, MTT, 24 h
Procedure: as §1

[5] = test system: AGS (gastric cancer); assay: MTT cell viability assay; type: cell-based; settings: Homo sapiens, 24 h
Procedure: as §1

[6] = test system: MDA-MB-231 (breast cancer); assay: MTT cell viability assay; type: cell-based; settings: Homo sapiens; MDA-MB-231, MTT, 24 h
Procedure: as §1

[7] = test system: OVCAR-8; assay: NCI DTP 60 cell line screen, SRB; settings: for GI50 / CC50: Homo sapiens, OVCAR-8, 48 h; for CC50: read-out: LC50; for TGI: OVCAR-8 (Ovarian Cancer), 48 h, SRB
[8] = test system: NCI-H460; assay: cells; settings: Homo sapiens, NCI-H460, 48 h; for CC50: read-out: LC50
[9] = test system: MDA-MB-435; assay: NCI DTP 60 cell line screen, SRB; settings: for GI50 / CC50: Homo sapiens, MDA-MB-435, 48 h; for CC50: read-out: LC50; for TGI: MDA-MB-435 (Breast Cancer), 48 h, SRB
[10] = test system: HCC-2998; assay: NCI DTP 60 cell line screen, SRB; settings: for TGI: HCC-2998 (Colon Cancer), 48 h, SRB; for GI50 / CC50: Homo sapiens, HCC 2998, 48 h; for CC50: read-out: LC50
[11] = test system: PC-3; assay: cells; settings: Homo sapiens, PC-3, 48 h; for CC50: read-out: LC50
[12] = test system: M14; assay: NCI DTP 60 cell line screen, SRB; settings: for GI50 / CC50: Homo sapiens, M14, 48 h; for CC50: read-out: LC50; for TGI: M14 (Melanoma), 48 h, SRB
[13] = test system: UO-31; assay: NCI DTP 60 cell line screen, SRB; settings: for GI50 / CC50: Homo sapiens, UO-31, 48 h; for CC50: read-out: LC50; for TGI: UO-31 (Renal Cancer), 48 h, SRB
[14] = test system: MDA-MB-231/ATCC; assay: NCI DTP 60 cell line screen, SRB; settings: for GI50 / CC50: Homo sapiens, MDA-MB-231, 48 h; for CC50: read-out: LC50; for TGI: MDA-MB-231/ATCC (Breast Cancer), 48 h, SRB
[15] = test system: SF-295; assay: NCI DTP 60 cell line screen, SRB; settings: for GI50 / CC50: Homo sapiens, SF-295, 48 h; for CC50: read-out: LC50; for TGI: SF-295 (CNS Cancer), 48 h, SRB
[16] = test system: NCI-322M; assay: NCI DTP 60 cell line screen, SRB; settings: 48 h; for GI50 / CC50: Homo sapiens, NCI-322M; for CC50: read-out: LC50; for TGI: NCI-322M (Non-Small Cell Lung Cancer), SRB
[17] = test system: A498; assay: NCI DTP 60 cell line screen, SRB; settings: for TGI: A498 (Renal Cancer), 48 h, SRB; for GI50 / CC50: Homo sapiens, A498, 48 h; for CC50: read-out: LC50
[18] = test system: A549/ATCC; assay: cells; settings: Homo sapiens, A549, 48 h; for CC50: read-out: LC50
[19] = test system: CCRF-CEM; assay: NCI DTP 60 cell line screen, SRB; settings: 48 h; for TGI: CCRF-CEM (Leukemia), SRB; for GI50 / CC50: Homo sapiens, CCRF-CEM; for CC50: read-out: LC50
[20] = test system: SW-620; assay: cells; settings: Homo sapiens, SW-620, 48 h; for CC50: read-out: LC50
[21] = test system: HCT-116; assay: cells; settings: Homo sapiens, HCT-116, 48 h; for CC50: read-out: LC50
[22] = test system: OVCAR-3; assay: NCI DTP 60 cell line screen, SRB; settings: for GI50 / CC50: Homo sapiens, OVCAR-3, 48 h; for CC50: read-out: LC50; for TGI: OVCAR-3 (Ovarian Cancer), 48 h, SRB
[23] = test system: HL-60(TB); assay: cells; settings: Homo sapiens, HL-60, 48 h; for CC50: read-out: LC50
[24] = test system: MCF-7; assay: NCI DTP 60 cell line screen, SRB; settings: for GI50 / CC50: Homo sapiens, MCF7, 48 h; for CC50: read-out: LC50; for TGI: MCF-7 (Breast Cancer), 48 h, SRB
[25] = test system: SN12C; assay: cells; settings: Homo sapiens, 48 h; for CC50: read-out: LC50
[26] = test system: ACHN; assay: NCI DTP 60 cell line screen, SRB; settings: 48 h; for TGI: ACHN (Renal Cancer), SRB; for GI50 / CC50: Homo sapiens, ACHN; for CC50: read-out: LC50
[27] = test system: RXF 393; assay: cells; settings: Homo sapiens, RXF 393, 48 h; for CC50: read-out: LC50
[28] = test system: RXF 393; settings: RXF 393 (Renal Cancer), 48 h, SRB
[29] = test system: MDA-MB-468; assay: NCI DTP 60 cell line screen, SRB

Compound: O=C1NC(=S)S/C1=C\C(Cl)=C\c1ccc([N+](=O)[O-])cc1 [Compound 2b, 5-[(Z,2Z)-2-Chloro-3-(4-nitrophenyl)-2-propenylidene]-2-thioxo-4-thiazolidinone]
- TGI [1]: 33.1 µM
- TGI [2]: 12.3 µM
- GI50 [3]: 4.79 µM
- GI50 [4]: 8.39 µM
- GI50 [5]: 7.86 µM
- GI50 [6]: 10.6 µM
- GI50 [7]: 5.08 µM
- CC50 [7]: 47.9 µM
- TGI [7]: 15.6 µM
- GI50 [8]: 3950 nM
- CC50 [8]: > 50 µM
- GI50 [9]: 8.57 µM
- CC50 [9]: > 50 µM
- TGI [9]: 47.9 µM
- TGI [10]: 11.7 µM
- GI50 [10]: 5.43 µM
- CC50 [10]: 25 µM
- GI50 [11]: 4680 nM
- CC50 [11]: > 50 µM
- GI50 [12]: 8870 nM
- CC50 [12]: > 50 µM
- TGI [12]: 32.2 µM
- GI50 [13]: 4120 nM
- CC50 [13]: > 50 µM
- TGI [13]: 21.8 µM
- GI50 [14]: 8.16 µM
- CC50 [14]: > 50 µM
- TGI [14]: 28.1 µM
- GI50 [15]: 8.46 µM
- CC50 [15]: > 50 µM
- TGI [15]: 37.9 µM
- GI50 [16]: 6.51 µM
- CC50 [16]: > 50 µM
- TGI [16]: 18.8 µM
- TGI [17]: 12.2 µM
- GI50 [17]: 4.57 µM
- CC50 [17]: 30.9 µM
- GI50 [18]: 8.18 µM
- CC50 [18]: > 50 µM
- TGI [19]: 21.5 µM
- GI50 [19]: 1970 nM
- CC50 [19]: > 50 µM
- GI50 [20]: 1940 nM
- CC50 [20]: 23.5 µM
- GI50 [21]: 2930 nM
- CC50 [21]: 33.7 µM
- GI50 [22]: 1650 nM
- CC50 [22]: 26.6 µM
- TGI [22]: 8.08 µM
- GI50 [23]: 1210 nM
- CC50 [23]: > 50 µM
- GI50 [24]: 2140 nM
- CC50 [24]: > 50 µM
- TGI [24]: 38.0 µM
- GI50 [25]: 4110 nM
- CC50 [25]: > 50 µM
- TGI [26]: 11.8 µM
- GI50 [26]: 3640 nM
- CC50 [26]: 31.7 µM

Compound: O=C(O)CCN1C(=O)/C(=C/C(Cl)=C/c2ccc([N+](=O)[O-])cc2)SC1=S [Compound 2h, 3-{5-[(Z,2Z)-2-Chloro-3-(4-nitrophenyl)-2-propenylidene]-4-oxo-2-thioxothiazolidin-3-yl}propanoic acid]
- TGI [1]: 19.9 µM
- TGI [2]: 23.6 µM
- GI50 [3]: 3.62 µM
- GI50 [4]: 3.67 µM
- GI50 [5]: 2.69 µM
- GI50 [6]: 1.63 µM
- GI50 [7]: 0.244 µM
- CC50 [7]: > 100 µM
- TGI [7]: 11.5 µM
- GI50 [8]: 804 nM
- CC50 [8]: > 100 µM
- GI50 [9]: 1.25 µM
- CC50 [9]: 29.3 µM
- TGI [9]: 4.12 µM
- GI50 [27]: 105 nM
- CC50 [27]: 1.73 µM
- TGI [28]: 0.341 µM
- GI50 [11]: 712 nM
- CC50 [11]: 41.9 µM
- GI50 [12]: 1660 nM
- CC50 [12]: 7.74 µM
- TGI [12]: 3.58 µM
- GI50 [13]: 812 nM
- CC50 [13]: 6.31 µM
- TGI [13]: 2.43 µM
- GI50 [14]: 1.08 µM
- CC50 [14]: 25.9 µM
- TGI [14]: 4.86 µM
- GI50 [15]: 3.36 µM
- CC50 [15]: > 100 µM
- TGI [15]: 21.6 µM
- GI50 [16]: 2.83 µM
- CC50 [16]: 63.4 µM
- TGI [16]: 10.9 µM
- GI50 [18]: 1.76 µM
- CC50 [18]: > 100 µM
- GI50 [20]: < 10 nM
- CC50 [20]: > 100 µM
- GI50 [21]: 270 nM
- CC50 [21]: > 100 µM
- GI50 [22]: 135 nM
- CC50 [22]: 66.6 µM
- TGI [22]: 6.05 µM
- GI50 [23]: 347 nM
- CC50 [23]: > 100 µM
- GI50 [24]: 239 nM
- CC50 [24]: > 100 µM
- TGI [24]: 14.4 µM
- GI50 [25]: 1050 nM
- CC50 [25]: 8.48 µM
- TGI [26]: 2.42 µM
- GI50 [26]: 1020 nM
- CC50 [26]: 5.76 µM

Compound: O=C(O)C(Cc1ccccc1)N1C(=O)/C(=C/C(Cl)=C/c2ccc([N+](=O)[O-])cc2)SC1=S (stereo not drawn) [Compound 2j, 2-{5-[(Z,2Z)-2-Chloro-3-(4-nitrophenyl)-2-propenylidene]-4-oxo-2-thioxothiazolidin-3-yl}-3-phenylpropanoic acid]
- TGI [1]: 6.75 µM
- TGI [2]: 4.68 µM
- GI50 [7]: 3.13 µM
- CC50 [7]: > 100 µM
- TGI [7]: > 100 µM
- GI50 [8]: 2190 nM
- CC50 [8]: > 100 µM
- GI50 [27]: 1540 nM
- CC50 [27]: 5.93 µM
- TGI [10]: 3.50 µM
- GI50 [10]: 1.96 µM
- CC50 [10]: 6.27 µM
- TGI [28]: 3.02 µM
- GI50 [11]: 2530 nM
- CC50 [11]: > 100 µM
- GI50 [12]: 2530 nM
- CC50 [12]: > 100 µM
- TGI [12]: > 100 µM
- GI50 [13]: 1590 nM
- CC50 [13]: 6.05 µM
- TGI [13]: 3.10 µM
- GI50 [14]: 3.35 µM
- CC50 [14]: > 100 µM
- TGI [14]: > 100 µM
- GI50 [15]: 2.59 µM
- CC50 [15]: > 100 µM
- TGI [15]: 7.85 µM
- GI50 [16]: > 100 µM
- CC50 [16]: > 100 µM
- TGI [16]: >100/>100/>100 μM
- TGI [17]: 3.24 µM
- GI50 [17]: 1.65 µM
- CC50 [17]: 6.37 µM
- GI50 [18]: 3.46 µM
- CC50 [18]: > 100 µM
- TGI [19]: > 100 µM
- GI50 [19]: 2920 nM
- CC50 [19]: > 100 µM
- GI50 [20]: 2100 nM
- CC50 [20]: > 100 µM
- GI50 [21]: 2010 nM
- CC50 [21]: 56.7 µM
- GI50 ([29]; Homo sapiens, MDA-MB-468, 48 h): 1390 nM
- CC50 ([29]; Homo sapiens, MDA-MB-468, 48 h, read-out: LC50): 7.71 µM
- TGI ([29]; MDA-MB-468 (Breast Cancer), 48 h, SRB): 3.28 µM
- GI50 [22]: 1760 nM
- CC50 [22]: 6.98 µM
- TGI [22]: 3.51 µM
- GI50 [24]: 2380 nM
- CC50 [24]: > 100 µM
- TGI [24]: 10.7 µM
- GI50 [25]: 2840 nM
- CC50 [25]: > 100 µM
- TGI [26]: 3.30 µM
- GI50 [26]: 1800 nM
- CC50 [26]: 6.04 µM
